Measured values reported in ChEMBL document CHEMBL1155215, “Green chemoselective synthesis of thiazolo[3,2-a]pyridine derivatives and evaluation of their antioxidant and cytotoxic activities” (Bioorg Med Chem Lett, 2009).

What was measured:
[1] = test system: HCT-116; test: Cytotoxicity against human HCT116 cells assessed as inhibition of cell proliferation at 1 mg/ml after 48 hrs by MTT assay; type: functional; settings: HCT-116, 48 h
[2] = Cytotoxicity against C57BL/6 mouse spleen lymphocytes assessed as inhibition of cell proliferation at 1 mg/ml after 48 hrs by MTT assay; type: tissue-based, Lymphocyte
[3] = test system: Radical scavenging activity; test: Antioxidant activity assessed as DPPH free radical scavenging activity at 1 mg assessed per mg; type: functional
[4] = Antioxidant activity assessed as hydroxyl free radical scavenging activity at 1 mg assessed per mg; type: functional

Row | Structure (SMILES) | inhibition at 1000 µg/mL [1] [%] | inhibition at 48 h, 1 mg/ml [2] [%] | inhibition [3] [%] | inhibition [4] [%]
1 | N#CC1=C(N)N2C(=O)CSC2=C(C#N)C1c1ccc(F)cc1 (centres undefined) | 47.8 | 66.9 |  | 
2 | N#CC1=C(N)n2c(s/c(=C\c3ccc([N+](=O)[O-])cc3)c2=O)=C(C#N)C1c1ccc([N+](=O)[O-])cc1 (centres undefined) | 35.5 | 51.7 |  | 
3 | Cc1ccc(C2C(C#N)=C(N)N3C(=O)CSC3=C2C#N)cc1 (centres undefined) | 47.4 | 63.8 |  | 
4 | N#CC1=C(N)n2c(s/c(=C\c3cccs3)c2=O)=C(C#N)C1c1cccs1 (centres undefined) | 63.8 | 55.4 |  | 
5 | N#CC1=C(N)N2C(=O)CSC2=C(C#N)C1c1ccc(Br)cc1 (centres undefined) | 43.5 | 69.6 | 67.7 | 
6 | N#CC1=C(N)n2c(s/c(=C\c3ccc(Br)cc3)c2=O)=C(C#N)C1c1ccc(Br)cc1 (centres undefined) | 56.6 | 71.3 | 108 | 125
7 | N#CC1=C(N)n2c(s/c(=C\c3cccc([N+](=O)[O-])c3)c2=O)=C(C#N)C1c1cccc([N+](=O)[O-])c1 (centres undefined) | 53 | 60.4 | 45.9 | 56.8
8 | COc1ccc(C2C(C#N)=C(N)N3C(=O)CSC3=C2C#N)cc1 (centres undefined) | 50.2 | 70.6 | 140 | 
9 | N#CC1=C(N)N2C(=O)CSC2=C(C#N)C1c1ccccc1Cl (centres undefined) | 54.1 | 60.4 |  | 
10 | O=C1O[C@H]([C@@H](O)CO)C(O)=C1O |  |  |  | 109
11 | N#CC1=C(N)N2C(=O)CSC2=C(C#N)C1c1ccc(Cl)cc1Cl (centres undefined) | 29.9 | 55.4 |  | 
12 | N#CC1=C(N)N2C(=O)CSC2=C(C#N)C1c1ccc2c(c1)OCO2 (centres undefined) | 51.8 | 62 |  | 
13 | N#CC1=C(N)n2c(s/c(=C\c3ccc(O)c([N+](=O)[O-])c3)c2=O)=C(C#N)C1c1ccc(O)c([N+](=O)[O-])c1 (centres undefined) | 41.2 | 5.31 | 109 | 
14 | N#CC1=C(N)N2C(=O)CSC2=C(C#N)C1c1ccccc1 (centres undefined) | 50.8 | 64.8 |  | 
